According to patent US20240091324A1, “GASTROINTESTINAL HEALTH COMPOSITION” (priority 2019, published 2024):

Legend:
[1] = test system: Bacteria (AIEC obtained from IBD and IBS patients); assay: Observed therapeutic effective dose determined in the in vitro experiments (Table 4); type: cell-based, E. coli; details: Not relevant = no anti-attachment or anti-invasive effect on the AIEC
Procedure: (§1) The observed therapeutic effective dose was determined in the in vitro experiments described herein.
(§2) Table 4 summarises the observed therapeutic effective dose for each GaRP formulation component.

Macrophage = assay: as above; type: cell-based, human
Procedure: as §1, §2

Enterocyte = assay: as above; type: cell-based, human
Procedure: as §1, §2

MUC8 = assay: qPCR of MUC gene expression in Caco-2:HT-29-MTX 75:25 coculture; type: cell-based, human; details: 24 h
Procedure: (§3) Caco-2:HT-29-MTX 75:25 coculture: This co-culture model was used to simulate the human colonic epithelium (Hilgendorh C, 2000). The Caco-2 cells (passage 8) and the HT29-MTX cells (passage 9) were combined at a 75:25 ratio in DMEM with 10% FBS. The combined cells (6.4×10^4 cells/ml) were seeded into 25 cm^2 in a total of 5 ml per flask. The coculture was incubated at 37° C. in a 5% CO2 atmosphere with medium refreshed every 48 h. At 15 days post seeding, the coculture monolayer was washed three times in DMEM and replaced with 5 ml of pre-warmed test solution, and then incubated for 24 h.
(§4) Before RNA extraction, cells were collected by centrifugation at 5,000 g for 5 min, 4° C. the cell pellet was washed three times in ice-cold PBS followed by resuspension in 500 μl of ice-cold PBS. The total RNA of 2×10^6 cells per sample was extracted using a PureLink RNA mini kit with 1.5 μg of RNA (with A260/A280 ratio between 2.00 and 2.20) reverse-transcribed into cDNA using a High Capacity cDNA RT kit. The expression of the genes of interest was quantified using the PowerUp SYBR green Master mix. In brief, triplicate qPCR reactions was set up using 20 ng cDNA and 500 nM primers in a MicroAmp optical 384-well reaction plates using a Biomek-4000 automated liquid handler (Beckman Coulter, Brea, CA, USA). Amplification was run in a ViiA7 Real-Time PCR system (Thermo Fisher Scientific) at the following conditions: 95° C. for 20 seconds followed by 40 cycles of 95° C. for 1 second and 60° C. for 20 seconds; and a melt curve stage: 95° C., 15 s; 60° C., 60 s. The results of qPCR were analysed with the 2-ΔΔCT method as previously described using the QuantStudio Software V1.3 (Applied Biosystems). Relative gene expression values were normalized by using GAPDH and 18S as the multiple endogenous reference genes.
(§5) A 75:25 caco-2/HT-29 co-culture was established as previously described herein and the effect of a 24 h exposure to bromelain, threonine, sodium butyrate, vitamin D3 and the two different GaRP formulations on the expression of the following MUC genes was investigated using qPCR. At the end of the 24 h treatment, the supernatant in the 25 cm^2 flasks was collected and the coculture monolayer was trypsinised as previously described herein.
as §3, with “This” for “Caco-2:HT-29-MTX 75:25 coculture: This”, “epithelium.” for “epithelium (Hilgendorh C, 2000).”
(§6) The test solutions of cholecalciferol (VD3) and L-Threonine (L-Thr) (Sigma-Aldrich) in culture medium were prepared one day before the treatment. At 15 days post seeding, the coculture monolayer was washed three times at hourly interval with culture medium, which was then replaced with 5 ml of pre-warmed test solution, and then incubated for 24 h.
(§7) At the end of the 24 h treatment, the supernatant in the 25 cm^2 flasks was collected and the coculture monolayer was trypsinised as previously described. Cells were collected by centrifugation at 5,000 g for 5 min, 4° C. After washed three times with ice-cold PBS, the cells were resuspended in 500 μl of ice-cold PBS. The total RNA of 2×10^6 cells per sample was extracted using the PureLink RNA mini kit (Invitrogen). For real-time PCR analysis, 1.5 μg of RNA (with A260/A280 ratio between 2.00 and 2.20) was reverse transcribed into cDNA using the High Capacity cDNA RT kit (Applied Biosystems, Foster City, CA, USA).
(§8) The expression of the human MUC2 and MUC7 genes in the Caco-2:HT-29-MTX 75:25 coculture was quantified using the PowerUp SYBR green Master mix (Applied Biosystems). […]

MUC4 = assay: as above; type: cell-based, human; details: 24 h
Procedure: as §3, §4, §5
as §3, with “This” for “Caco-2:HT-29-MTX 75:25 coculture: This”, “epithelium.” for “epithelium (Hilgendorh C, 2000).”
as §6, §7, §8

MUC17 = assay: as above; type: cell-based, human; details: 24 h
Procedure: as §3, §4, §5
as §3, with “This” for “Caco-2:HT-29-MTX 75:25 coculture: This”, “epithelium.” for “epithelium (Hilgendorh C, 2000).”
as §6, §7, §8

MUC15 = assay: as above; type: cell-based, human; details: 24 h
Procedure: as §3, §4, §5
as §3, with “This” for “Caco-2:HT-29-MTX 75:25 coculture: This”, “epithelium.” for “epithelium (Hilgendorh C, 2000).”
as §6, §7, §8

MUC6 = assay: as above; type: cell-based, human; details: 24 h
Procedure: as §3, §4, §5
as §3, with “This” for “Caco-2:HT-29-MTX 75:25 coculture: This”, “epithelium.” for “epithelium (Hilgendorh C, 2000).”
as §6, §7, §8

MUC12 = assay: as above; type: cell-based, human; details: 24 h
Procedure: as §3, §4, §5
as §3, with “This” for “Caco-2:HT-29-MTX 75:25 coculture: This”, “epithelium.” for “epithelium (Hilgendorh C, 2000).”
as §6, §7, §8

MUC20 = assay: as above; type: cell-based, human; details: 24 h
Procedure: as §3, §4, §5
as §3, with “This” for “Caco-2:HT-29-MTX 75:25 coculture: This”, “epithelium.” for “epithelium (Hilgendorh C, 2000).”
as §6, §7, §8

MUC19 = assay: as above; type: cell-based, human; details: 24 h
Procedure: as §3, §4, §5
as §3, with “This” for “Caco-2:HT-29-MTX 75:25 coculture: This”, “epithelium.” for “epithelium (Hilgendorh C, 2000).”
as §6, §7, §8

MUC3 = assay: as above; type: cell-based, human; details: 24 h
Procedure: as §3, §4, §5
as §3, with “This” for “Caco-2:HT-29-MTX 75:25 coculture: This”, “epithelium.” for “epithelium (Hilgendorh C, 2000).”
as §6, §7, §8

MUC13 = assay: as above; type: cell-based, human; details: 24 h
Procedure: as §3, §4, §5
as §3, with “This” for “Caco-2:HT-29-MTX 75:25 coculture: This”, “epithelium.” for “epithelium (Hilgendorh C, 2000).”
as §6, §7, §8

MUC7 = assay: as above; type: cell-based, human; details: 24 h
Procedure: as §3, §4, §5
as §3, with “This” for “Caco-2:HT-29-MTX 75:25 coculture: This”, “epithelium.” for “epithelium (Hilgendorh C, 2000).”
as §6, §7, §8

MUC2 = assay: as above; type: cell-based, human; details: 24 h
Procedure: as §3, §4, §5
as §3, with “This” for “Caco-2:HT-29-MTX 75:25 coculture: This”, “epithelium.” for “epithelium (Hilgendorh C, 2000).”
as §6, §7, §8

MUC1 = assay: as above; type: cell-based, human; details: 24 h
Procedure: as §3, §4, §5
as §3, with “This” for “Caco-2:HT-29-MTX 75:25 coculture: This”, “epithelium.” for “epithelium (Hilgendorh C, 2000).”
as §6, §7, §8

MUC16 = assay: as above; type: cell-based, human; details: 24 h
Procedure: as §3, §4, §5
as §3, with “This” for “Caco-2:HT-29-MTX 75:25 coculture: This”, “epithelium.” for “epithelium (Hilgendorh C, 2000).”
as §6, §7, §8

MUC5B = assay: as above; type: cell-based, human; details: 24 h
Procedure: as §3, §4, §5
as §3, with “This” for “Caco-2:HT-29-MTX 75:25 coculture: This”, “epithelium.” for “epithelium (Hilgendorh C, 2000).”
as §6, §7, §8

MUC5AC = assay: as above; type: cell-based, human; details: 24 h
Procedure: as §3, §4, §5
as §3, with “This” for “Caco-2:HT-29-MTX 75:25 coculture: This”, “epithelium.” for “epithelium (Hilgendorh C, 2000).”
as §6, §7, §8

## C=C1CC[C@H](O)C/C1=C/C=C1\CCC[C@]2(C)[C@@H]([C@H](C)CCCC(C)C)CC[C@@H]12 [Vitamin D3, Cholecalciferol]
[1]
  observed therapeutic effective dose, Target cell Bacteria (fg/cell): Not relevant
Macrophage
  observed therapeutic effective dose, Target cell Macrophage (pg/cell): 0.36 pg/cell
Enterocyte
  observed therapeutic effective dose, Target cell Enterocyte (pg/cell): 0.018 pg/cell
MUC8; 0.048 μg/ml vitamin D3
  Effect on MUC gene expression, MUC8: Decreased by: by 30%
MUC8; 0.48 μg/ml vitamin D3
  Effect on MUC gene expression, MUC8: Decreased by: by 50%
MUC4; 0.048 μg/ml vitamin D3
  Effect on MUC gene expression, MUC4: No effect
MUC4; 0.48 μg/ml vitamin D3
  Effect on MUC gene expression, MUC4: No effect
MUC17; 0.048 μg/ml vitamin D3
  Effect on MUC gene expression, MUC17: Decreased by: by 31%
MUC17; 0.48 μg/ml vitamin D3
  Effect on MUC gene expression, MUC17: Decreased by: by 40%
MUC15; 0.048 μg/ml vitamin D3
  Effect on MUC gene expression, MUC15: No effect
MUC15; 0.48 μg/ml vitamin D3
  Effect on MUC gene expression, MUC15: No effect
MUC6; 0.048 μg/ml vitamin D3
  Effect on MUC gene expression, MUC6: No effect
MUC6; 0.48 μg/ml vitamin D3
  Effect on MUC gene expression, MUC6: No effect
MUC12; 0.048 μg/ml vitamin D3
  Effect on MUC gene expression, MUC12: No effect
MUC12; 0.48 μg/ml vitamin D3
  Effect on MUC gene expression, MUC12: No effect
MUC20; 0.048 μg/ml vitamin D3
  Effect on MUC gene expression, MUC20: Decreased by: by 18%
MUC20; 0.48 μg/ml vitamin D3
  Effect on MUC gene expression, MUC20: Decreased by: by 27%
MUC19; 0.048 μg/ml vitamin D3
  Effect on MUC gene expression, MUC19: No effect
MUC19; 0.48 μg/ml vitamin D3
  Effect on MUC gene expression, MUC19: No effect
MUC3; 0.048 μg/ml vitamin D3
  Effect on MUC gene expression, MUC3: Decreased by: by 43%
MUC3; 0.48 μg/ml vitamin D3
  Effect on MUC gene expression, MUC3: No effect
MUC13; 0.048 μg/ml vitamin D3
  Effect on MUC gene expression, MUC13: Decreased by: by 37%
MUC13; 0.48 μg/ml vitamin D3
  Effect on MUC gene expression, MUC13: Decreased by: by 56%
MUC7; 0.048 μg/ml vitamin D3
  Effect on MUC gene expression, MUC7: No effect
MUC7; 0.48 μg/ml vitamin D3
  Effect on MUC gene expression, MUC7: No effect
MUC7; titration, FIGS. 9A & 9B
  effect on the expression of MUC7, individually: did not exert a major effect
MUC2; 0.048 μg/ml vitamin D3
  Effect on MUC gene expression, MUC2: No effect
MUC2; 0.48 μg/ml vitamin D3
  Effect on MUC gene expression, MUC2: No effect
MUC2; titration, FIGS. 9A & 9B
  effect on the expression of MUC2, individually: did not exert a major effect
MUC1; 0.048 μg/ml vitamin D3
  Effect on MUC gene expression, MUC1: Decreased by: by 37%
MUC1; 0.48 μg/ml vitamin D3
  Effect on MUC gene expression, MUC1: Decreased by: by 58%
MUC16; 0.048 μg/ml vitamin D3
  Effect on MUC gene expression, MUC16: No effect
MUC16; 0.48 μg/ml vitamin D3
  Effect on MUC gene expression, MUC16: No effect
MUC5B; 0.048 μg/ml vitamin D3
  Effect on MUC gene expression, MUC5B: Decreased by: by 56%
MUC5B; 0.48 μg/ml vitamin D3
  Effect on MUC gene expression, MUC5B: Decreased by: by 63%
MUC5AC; 0.048 μg/ml vitamin D3
  Effect on MUC gene expression, MUC5AC: Decreased by: by 42%
MUC5AC; 0.48 μg/ml vitamin D3
  Effect on MUC gene expression, MUC5AC: Decreased by: by 42%
